The subject of this assay is new influenza virus (A/California/04/2009(H1N1)). The format is in vivo. Particulars: H1N1-infected BALB/c mice (6 per group), observed 14 days after infection; ginseng concentrates 10 mg/kg/day for 14 days before and one week after inoculation; Tamiflu 2 mg/kg/day.

Consider `CCOC(=O)C1=C[C@@H](OC(CC)CC)[C@H](NC(C)=O)[C@@H](N)C1` [Tamiflu], for which the Fatality was determined as 0%.

The values above are taken from patent US12485154B2 (priority 2019, dated 2025).
